Several values for one entry are separate records, joined by “and”; a condition that tells them apart may be missing. Identical values can stand only once.
Details: Liquid; for mass density: Bellows volumetry

CCC(C)C [2-methylbutane]
Details | mass density
280 K, 1000 kPa | 633.54 kg/m3
280 K, 2000 kPa | 634.7 kg/m3
280 K, 3000 kPa | 635.86 kg/m3
280 K, 5000 kPa | 638.02 kg/m3
280 K, 10000 kPa | 643.42 kg/m3
280 K, 20000 kPa | 653.11 kg/m3
280 K, 30000 kPa | 661.46 kg/m3
280 K, 40000 kPa | 669.03 kg/m3
280 K, 50000 kPa | 675.94 kg/m3
280 K, 60000 kPa | 682.44 kg/m3
280 K, 70000 kPa | 688.43 kg/m3
280 K, 80000 kPa | 694.03 kg/m3
280 K, 90000 kPa | 699.3 kg/m3
280 K, 100000 kPa | 704.35 kg/m3
280 K, 120000 kPa | 713.77 kg/m3
280 K, 140000 kPa | 722.2 kg/m3
280 K, 160000 kPa | 729.89 kg/m3
280 K, 180000 kPa | 737.33 kg/m3
280 K, 200000 kPa | 744.07 kg/m3
298.14 K, 10200 kPa | 627.35 kg/m3
298.14 K, 40600 kPa | 656.53 kg/m3
298.14 K, 101400 kPa | 694.83 kg/m3
298.14 K, 177400 kPa | 727.57 kg/m3
300 K, 1000 kPa | 613.77 kg/m3
300 K, 2000 kPa | 615.18 kg/m3
300 K, 3000 kPa | 616.54 kg/m3
300 K, 5000 kPa | 619.26 kg/m3
300 K, 10000 kPa | 625.53 kg/m3
300 K, 20000 kPa | 636.61 kg/m3
300 K, 30000 kPa | 646.19 kg/m3
300 K, 40000 kPa | 654.71 kg/m3
300 K, 50000 kPa | 662.36 kg/m3
300 K, 60000 kPa | 669.45 kg/m3
300 K, 70000 kPa | 675.91 kg/m3
300 K, 80000 kPa | 682.03 kg/m3
300 K, 90000 kPa | 687.64 kg/m3
300 K, 100000 kPa | 692.98 kg/m3
300 K, 120000 kPa | 702.76 kg/m3
300 K, 140000 kPa | 711.75 kg/m3
300 K, 160000 kPa | 719.81 kg/m3
300 K, 180000 kPa | 727.5 kg/m3
300 K, 200000 kPa | 734.71 kg/m3
320 K, 199 kPa | 592.04 kg/m3
320 K, 210 kPa | 592.07 kg/m3
320 K, 315 kPa | 592.25 kg/m3
320 K, 502 kPa | 592.61 kg/m3
320 K, 1000 kPa | 593.5 kg/m3 and 592.72 kg/m3
320 K, 2000 kPa | 595.25 kg/m3 and 594.35 kg/m3
320 K, 3000 kPa | 596.07 kg/m3
320 K, 5000 kPa | 599.33 kg/m3
320 K, 10000 kPa | 606.77 kg/m3
320 K, 20000 kPa | 619.58 kg/m3
320 K, 30000 kPa | 630.46 kg/m3
320 K, 40000 kPa | 639.89 kg/m3
320 K, 50000 kPa | 648.39 kg/m3
320 K, 60000 kPa | 656.03 kg/m3
320 K, 70000 kPa | 662.98 kg/m3
320 K, 80000 kPa | 669.62 kg/m3
320 K, 90000 kPa | 675.83 kg/m3
320 K, 100000 kPa | 681.48 kg/m3
320 K, 120000 kPa | 691.83 kg/m3
320 K, 140000 kPa | 701.5 kg/m3
320 K, 160000 kPa | 710.26 kg/m3
320 K, 180000 kPa | 718.37 kg/m3
320 K, 200000 kPa | 725.65 kg/m3
323.13 K, 49030 kPa | 645.8 kg/m3
323.13 K, 98070 kPa | 678.79 kg/m3
323.13 K, 147100 kPa | 703.2 kg/m3
323.13 K, 196130 kPa | 722.79 kg/m3
340 K, 338 kPa | 569.61 kg/m3
340 K, 420 kPa | 569.78 kg/m3
340 K, 513 kPa | 570.01 kg/m3
340 K, 1000 kPa | 571.14 kg/m3 and 570.66 kg/m3
340 K, 2000 kPa | 572.85 kg/m3
340 K, 3000 kPa | 574.98 kg/m3
340 K, 5000 kPa | 578.97 kg/m3
340 K, 10000 kPa | 587.99 kg/m3
340 K, 20000 kPa | 602.92 kg/m3
340 K, 30000 kPa | 615.28 kg/m3
340 K, 40000 kPa | 625.82 kg/m3
340 K, 50000 kPa | 635.12 kg/m3
340 K, 60000 kPa | 643.45 kg/m3
340 K, 70000 kPa | 651.03 kg/m3
340 K, 80000 kPa | 658.05 kg/m3
340 K, 90000 kPa | 664.53 kg/m3
340 K, 100000 kPa | 670.52 kg/m3
340 K, 120000 kPa | 681.53 kg/m3
340 K, 140000 kPa | 691.52 kg/m3
340 K, 160000 kPa | 700.49 kg/m3
340 K, 180000 kPa | 708.89 kg/m3
340 K, 200000 kPa | 716.61 kg/m3
360 K, 550 kPa | 544.65 kg/m3
360 K, 608 kPa | 544.68 kg/m3
360 K, 609 kPa | 544.84 kg/m3
360 K, 702 kPa | 545.09 kg/m3
360 K, 1000 kPa | 545.87 kg/m3 and 545.89 kg/m3
360 K, 2000 kPa | 548.79 kg/m3
360 K, 3000 kPa | 551.5 kg/m3
360 K, 5000 kPa | 556.57 kg/m3
360 K, 10000 kPa | 567.71 kg/m3
360 K, 20000 kPa | 585.18 kg/m3
360 K, 30000 kPa | 599.16 kg/m3
360 K, 40000 kPa | 610.91 kg/m3
360 K, 50000 kPa | 621.15 kg/m3
360 K, 60000 kPa | 630.27 kg/m3
360 K, 70000 kPa | 638.43 kg/m3
360 K, 80000 kPa | 645.89 kg/m3
360 K, 90000 kPa | 652.93 kg/m3
360 K, 100000 kPa | 659.45 kg/m3
360 K, 120000 kPa | 671.11 kg/m3
360 K, 140000 kPa | 681.34 kg/m3
360 K, 160000 kPa | 691.16 kg/m3
360 K, 180000 kPa | 699.47 kg/m3
360 K, 200000 kPa | 708.18 kg/m3
368.12 K, 98070 kPa | 653.72 kg/m3
368.12 K, 147100 kPa | 681.34 kg/m3
368.12 K, 196130 kPa | 703.04 kg/m3
380 K, 846 kPa | 518.39 kg/m3
380 K, 857 kPa | 518.44 kg/m3
380 K, 962 kPa | 518.87 kg/m3
380 K, 1000 kPa | 518.39 kg/m3
380 K, 1001 kPa | 519.03 kg/m3
380 K, 2000 kPa | 522.38 kg/m3
380 K, 3000 kPa | 526.02 kg/m3
380 K, 5000 kPa | 532.71 kg/m3
380 K, 10000 kPa | 546.59 kg/m3
380 K, 20000 kPa | 567.43 kg/m3
380 K, 30000 kPa | 583.41 kg/m3
380 K, 40000 kPa | 596.53 kg/m3
380 K, 50000 kPa | 607.73 kg/m3
380 K, 60000 kPa | 617.61 kg/m3
380 K, 70000 kPa | 626.4 kg/m3
380 K, 80000 kPa | 634.41 kg/m3
380 K, 90000 kPa | 641.88 kg/m3
380 K, 100000 kPa | 648.74 kg/m3
380 K, 120000 kPa | 661.13 kg/m3
380 K, 140000 kPa | 672.14 kg/m3
380 K, 160000 kPa | 682.07 kg/m3
380 K, 180000 kPa | 691.12 kg/m3
380 K, 200000 kPa | 699.6 kg/m3
400 K, 1250 kPa | 487.6 kg/m3
400 K, 1309 kPa | 487.97 kg/m3
400 K, 1506 kPa | 489.2 kg/m3
400 K, 1611 kPa | 489.83 kg/m3
400 K, 2000 kPa | 491.59 kg/m3 and 492.12 kg/m3
400 K, 3000 kPa | 497.03 kg/m3
400 K, 5000 kPa | 506.33 kg/m3
400 K, 10000 kPa | 524.35 kg/m3
400 K, 20000 kPa | 549.47 kg/m3
400 K, 30000 kPa | 567.78 kg/m3
400 K, 40000 kPa | 582.37 kg/m3
400 K, 50000 kPa | 594.58 kg/m3
400 K, 60000 kPa | 605.35 kg/m3
400 K, 70000 kPa | 614.87 kg/m3
400 K, 80000 kPa | 623.43 kg/m3
400 K, 90000 kPa | 631.33 kg/m3
400 K, 100000 kPa | 638.47 kg/m3
400 K, 120000 kPa | 651.4 kg/m3
400 K, 140000 kPa | 662.94 kg/m3
400 K, 160000 kPa | 673.54 kg/m3
400 K, 180000 kPa | 682.87 kg/m3
400 K, 200000 kPa | 691.58 kg/m3
410 K, 1519 kPa | 470.27 kg/m3
410 K, 1623 kPa | 471.11 kg/m3
410 K, 2000 kPa | 474.02 kg/m3
420 K, 1789 kPa | 450.66 kg/m3
420 K, 1800 kPa | 450.78 kg/m3
420 K, 1904 kPa | 451.92 kg/m3
420 K, 2000 kPa | 452.61 kg/m3 and 452.93 kg/m3
420 K, 3000 kPa | 461.88 kg/m3
420 K, 5000 kPa | 476.16 kg/m3
420 K, 10000 kPa | 500.48 kg/m3
420 K, 20000 kPa | 530.77 kg/m3
420 K, 30000 kPa | 551.51 kg/m3
420 K, 40000 kPa | 567.85 kg/m3
420 K, 50000 kPa | 581.15 kg/m3
420 K, 60000 kPa | 592.84 kg/m3
420 K, 70000 kPa | 602.84 kg/m3
420 K, 80000 kPa | 612.1 kg/m3
420 K, 90000 kPa | 620.5 kg/m3
420 K, 100000 kPa | 628.24 kg/m3
420 K, 120000 kPa | 641.97 kg/m3
420 K, 140000 kPa | 653.97 kg/m3
420 K, 160000 kPa | 664.82 kg/m3
420 K, 180000 kPa | 674.63 kg/m3
420 K, 200000 kPa | 683.74 kg/m3
440 K, 3000 kPa | 412.99 kg/m3
440 K, 5000 kPa | 439.7 kg/m3
440 K, 10000 kPa | 474.4 kg/m3
440 K, 20000 kPa | 511.64 kg/m3
440 K, 30000 kPa | 535.46 kg/m3
440 K, 40000 kPa | 553.42 kg/m3
440 K, 50000 kPa | 568.08 kg/m3
440 K, 60000 kPa | 580.59 kg/m3
440 K, 70000 kPa | 591.44 kg/m3
440 K, 80000 kPa | 601.22 kg/m3
440 K, 90000 kPa | 610.1 kg/m3
440 K, 100000 kPa | 618.08 kg/m3
440 K, 120000 kPa | 632.51 kg/m3
440 K, 140000 kPa | 645.06 kg/m3
440 K, 160000 kPa | 656.44 kg/m3
440 K, 180000 kPa | 666.6 kg/m3
440 K, 200000 kPa | 676.01 kg/m3

Details | mass density [kg/m3] | vapor or sublimation pressure [kPa]
340 K | 569.21 | 328
360 K | 544.8 | 538
380 K | 518.31 | 835
400 K | 487.34 | 1238
410 K | 469.93 | 1487
420 K | 450.21 | 1772

Source: the NIST ThermoML archive (doi:10.1016/j.jct.2016.05.019)
